From US20130130306A1, “ZN (II) BASED COLORIMETRIC SENSOR AND PROCESS FOR THE PREPARATION THEREOF” (COUNCIL OF SCIENTIFIC & INDUSTRIAL RESEARCH, priority 2010, published 2013) come the findings set out here.

Values joined by “and” are separate entries in the source; they are usually repeats but may differ in a detail not shown here. Equal values may be shown once.

Data set [1] can be described thus: UV-vis spectral response and spectrophotometric titration with ATP. The class given is binding. Conditions: for binding constant for the formation of the complex L.Zn-ATP: spectrophotometric titration, pH 7.2, 10 mM HEPES, 25° C. As for the experimental part: In order to examine the binding behaviour of the Zn-complex (L.Zn) (Scheme 1, Formula 1A) to various important anions (like ATP, CTP, ADP, AMP, PPi, H2PO4^−, SO4^2−, CH3CO2^−, I^−, Br^−, Cl^− and F^−) the following experiment was conducted. A solution (˜21 mM) for of sodium salts of ATP, CTP, ADP, AMP, PPi, H2PO4^−, SO4^−, CH3CO2^−, I^−, Br^−, Cl^−, and F^− were prepared using respective salt in 10 mM HEPES buffer solutions (pH 7.2) and was stored for use. Further, a solution (44.35 μM) of the compound L.Zn (Scheme 1, Formula 1A) was prepared using doubly-distilled and deionized water and stored. These stored solutions were used on the day of preparation of the solution for experiment.
A test solution was used after 1 mL of a probe storage solution (the previously prepared and stored solution of 44.35 μM for the compound (L.Zn) (Scheme 1, Formula 1A of the present invention) was put in a 10 mL test tube, such that the final concentration of the probe storage solution was 8.87 μM. To this 4 mL of each of the previous prepared and stored solutions of ATP and other anions (CTP, ADP, AMP, PPi, H2PO4^−, SO4^2−, CH3CO2^−, I^−, Br^−, Cl^− and F^−) was added to the test tube such that the aliquot of each of the solutions was (17 mM). Then the resultant solution was used for UV-vis spectral measurement after appropriate base line correction using a double beam spectrophotometer (Shimadzu UV-3101 PC) and the results thereof are shown in FIG. 1.
Thus a red shift of 40 nm was observed on addition of the solution of ATP (˜1920 equiv.) to the solution of L.Zn (Scheme 1, Formula 1A). […]
A solution of L.Zn (Scheme 1, Formula 1A) (8.87 μM) in aqueous medium was treated with excess amount of ˜500 μM of different phosphate anions like H2PO4^−, PPi, AMP, ADP, ATP and CTP. […] Thus L.Zn (Scheme 1, Formula 1A) can bind ATP selectively among various phosphate anions and the color change associated with the binding of ATP can be detected through naked eye (FIG. 2). […]
A 1.0 mL of stored solution of L.Zn (Scheme 1, Formula 1A) ([L.Zn]=47.3 μM) was put in a test-tube, such that, the final concentration of the L.Zn solution was 9.46 μM. To this varying amount of ATP (0.1-4 mL of the stored ATP solution (21.6 mM) was added. Resulting solution was then diluted by addition of a 10 mM HEPES buffer solution (pH 7.2) maintaining total volume of the resultant aliquot of 5 mL, which was used for spectrophotometric measurements using a double beam spectrophotometer and quartz spectrophotometric cell (3.5 mL capacity). The total spectral change was measured using a double beam spectrophotometer (Shimadzu UV-3101 PC) after appropriate base line correction. Slit width for all experiments during this titration was kept unchanged at 0.2 nm and the results thereof are shown in FIG. 3. […]

Data set [2] is described as follows: Lipophilic nature of the dye.

For `CN(C)c1ccc(N=Nc2ccc(S(=O)(=O)N3CCCNCCNCCCNCC3)cc2)cc1.O=[N+]([O-])[O-].O=[N+]([O-])[O-].[Zn+2]` [L.Zn], the “color change on addition of ATP (naked eye)” value in data set [1] (L.Zn 8.87 μM in aqueous medium, ~500 μM anion) is on record as “significant color change”. In addition, in data set [1] (from 463 nm to 503 nm, pH 7.2, ~1920 equiv. ATP), the “shift of absorption maxima on binding to ATP” value came out at 40 nm. Moreover, the “binding constant for the formation of the complex L.Zn-ATP” value is 978 ± 15 M⁻¹ and 978 ± 4 M⁻¹ in data set [1]; 978 ± 4 M⁻¹ in data set [1] (listed as compound of formula 1A). The lipophilic nature result in data set [2] is given as “non-lipophilic”.
